One assay has as its system K. pneumoniae. The experiment in a line: AFC susceptibility-associated signature for ceftriaxone and gentamicin (FIG. 19). It counts as cell-based, Klebsiella pneumoniae. An excerpt:
FIG. 19 provides graphical and pictorial representations showing rapid determination of susceptibly of bacteria to antimicrobial using the using the AFC-assisted susceptibility testing method of the invention.
This example sets out to investigate utility of the AFC-assisted susceptibility testing method of the invention as a clinical test and tool which can inform use antimicrobial choice in the early hours of sepsis presentation, e.g., by applying the AFC-assisted susceptibility testing method directly to blood cultures.

Another assay has as its system Klebsiella isolates. Briefly: Acoustic flow cytometry-assisted susceptibility test (FAST), MICFAST and S/NS, Klebsiella isolates. It counts as cell-based, Klebsiella pneumoniae, Klebsiella oxytoca. Also on record: MICBMD / MICFAST data point (FIG. 8): unit not given here. To be noted: 10 of 14 K. pneumoniae isolates. As to the method: A 1 mL aliquot of bacterial suspension was centrifuged, washed and resuspended in 1 mL filtered Hank's Buffered Salt Solution (HBSS; comprising about 0.137 M NaCl, about 5.4 mM KCl, about 0.25 mM Na2HPO4, about 0.1 g Glucose, about 0.44 mM KH2PO4, 1.3 mM CaCl2), 1.0 mM MgSO4, about 1.3 mM CaCl2), 1.0 mM MgSO4, and about 4.2 mM NaHCO3) and diluted in series (e.g., in a 1:10 serial dilution) to a final 1:1000 dilution.
One μL (microliter) of SYTO 9 stain (e.g., ThermoFisher Scientific) working stock solution was added to the final dilution at a final concentration of 5 μM and incubated for 5 minutes before counting bacterial events by acoustic flow cytometer (AFC) (Attune, ThermoFisher, Eugene, Oreg., USA), which was used to prepare a standardised inoculum density for susceptibility testing.
An aliquot of bacterial suspension was added to 50 mL centrifuge tubes (Corning, N.Y.) containing 9 mL of pre-warmed (37° C.) filtered MHB to produce a final density of 5×10^5-1×10^6 bacteria per mL. This suspension was incubated at 37° C. with shaking at 100 RPM for 30 minutes to obtain an actively dividing culture. An aliquot of antibiotic working solution from the previously described dilution series (appropriate to the concentration tested) was then added to each tube before a further 30-minute incubation with shaking, during which time a microbroth dilution (MBD) plate was prepared for overnight incubation at 37° C. as previously described in Clinical and Laboratory Standards Institute (2015) Performance Standards for Antimicrobial Susceptibility Testing: Informational Supplement. CLSI document M100-S25. Clinical and Laboratory Standards Institute, 950, West Valley Road, Suite 2500, Wayne, Pa., 19087, USA.
One millilitre of bacterial suspension from each antibiotic concentration was harvested by centrifugation at 7800×g for 5 minutes, washed and diluted 1:10 in filtered HBSS in a light-impermeable microcentrifuge tube, then stained with SYTO 9 stain at a final concentration of 5 μM, and incubated for 5 min before AFC sampling. Hoechst 33342 dye (NucBlue, Thermo Fisher Scientific, Eugene, Oreg., USA) and a SYTO 9/propidium iodide (PI) combination (Thermo Fisher Scientific) were used in a series of replicate experiments.
The acoustic flow cytometer employed was Attune acoustic flow cytometer (Thermo Fisher Scientific), having installed therein a 488 nm blue laser with a 530/30 nm filter on the photomultiplier tube for measuring fluorescence of cells assayed. Alternatively, the Attune NxT acoustic flow cytometer (Thermo Fisher Scientific) can be employed. AFC was calibrated at the beginning of each acquisition session using fluorescently labelled size calibration beads, in accordance with the manufacturer's instructions (ThermoFisher Scientific). The AFC settings were as follows: Forward Scatter (FSC) voltage 3100, FSC threshold 4×1000 AND, blue laser 1 (BL1—530/30 nm) voltage 1900, BL1 threshold 1×1000 AND, high sensitivity, flow rate 25 μL/minute, and an acquisition volume of 125 μL. Acquisition was halted after either collection of 20,000 events across all gates, or after 3 minutes, with each sample acquired in technical triplicate.
Collected data was exported in the FCS 3.0 file format and analysed in Flow v10.0 (FlowJo LLC, Ashland, Oreg., USA) by a single user, blinded to the MIC results by BMD (MICBMD).
Subsequent to quantitative MICFAST determination, the acoustic flow cytometer data were re-analysed in silico to produce a limited sub-set for qualitative susceptibility determination. The six antibiotic dilutions (0 mg/L, 0.25 mg/L, 1 mg/L, 2 mg/L, 4 mg/L and 16 mg/L) most relevant to qualitative susceptibility assessment were used. In silico analysis was restricted to the first technical triplicate of each recorded sample. Gating strategies remained consistent, with the addition of a gate restricting analysis to only those events recorded in the first 60 seconds of acquisition.
For orientation: A flow cytometer gives signals particle by particle.

≈ marks a conversion by molar mass, not a printed value. Where two headings read alike, the source gives them in different places.

The MIC is the smallest concentration in the dilution series that meets the test's criterion for growth inhibition. In turn, gentamicin returned an MIC with K. pneumoniae (K. pneumoniae isolate 244606) of 1 µg/mL.

Consider `CO/N=C(\C(=O)N[C@@H]1C(=O)N2C(C(=O)O)=C(CSc3nc(=O)c(=O)[nH]n3C)CS[C@H]12)c1csc(N)n1` [ceftriaxone], for which the MIC with K. pneumoniae (Klebsiella pneumoniae, K. pneumoniae susceptible type strain SSCC 43358, read-out: isolate's MIC (FIG. 19A)) worked out at 0.25 µg/mL (≈ 0.451 µM). Also, the “MICBMD / MICFAST data point (FIG. 8)” value with Klebsiella isolates worked out at 256.

The values are drawn from US20210292807A1, “METHOD FOR TESTING ANTIMICROBIAL SUSCEPTIBILITY” (priority 2017, published 2021).
